Experimental data from article PMC5837813 (Bioorganic & medicinal chemistry letters, 2018).
pIC50: −log10 of the molar value.

Columns and labels:
human sEH = molecular target: T1, human sEH (Homo sapiens, UniProt P34913); assay: recombinant human sEH inhibition, fluorescent-based substrate; format: biochemical
T1 sequence (P34913 1-555): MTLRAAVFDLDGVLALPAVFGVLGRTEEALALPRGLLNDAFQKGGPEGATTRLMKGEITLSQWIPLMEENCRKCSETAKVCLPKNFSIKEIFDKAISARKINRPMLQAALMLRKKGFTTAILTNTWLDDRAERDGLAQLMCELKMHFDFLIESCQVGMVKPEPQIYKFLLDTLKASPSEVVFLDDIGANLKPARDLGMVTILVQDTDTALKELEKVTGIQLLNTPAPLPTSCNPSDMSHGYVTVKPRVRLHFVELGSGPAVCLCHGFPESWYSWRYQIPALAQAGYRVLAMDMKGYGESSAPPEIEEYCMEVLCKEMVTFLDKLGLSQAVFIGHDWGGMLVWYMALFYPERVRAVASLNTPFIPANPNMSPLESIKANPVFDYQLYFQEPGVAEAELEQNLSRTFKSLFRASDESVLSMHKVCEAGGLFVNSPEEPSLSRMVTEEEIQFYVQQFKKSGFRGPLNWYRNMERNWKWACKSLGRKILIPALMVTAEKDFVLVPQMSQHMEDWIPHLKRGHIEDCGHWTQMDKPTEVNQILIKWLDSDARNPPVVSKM

FAAH [1] = assay: block of activity in brain microsomes of the different species tested
FAAH [2] = molecular target: T2, FAAH (Homo sapiens, UniProt O00519); assay: biochemical
T2 sequence (O00519 1-579): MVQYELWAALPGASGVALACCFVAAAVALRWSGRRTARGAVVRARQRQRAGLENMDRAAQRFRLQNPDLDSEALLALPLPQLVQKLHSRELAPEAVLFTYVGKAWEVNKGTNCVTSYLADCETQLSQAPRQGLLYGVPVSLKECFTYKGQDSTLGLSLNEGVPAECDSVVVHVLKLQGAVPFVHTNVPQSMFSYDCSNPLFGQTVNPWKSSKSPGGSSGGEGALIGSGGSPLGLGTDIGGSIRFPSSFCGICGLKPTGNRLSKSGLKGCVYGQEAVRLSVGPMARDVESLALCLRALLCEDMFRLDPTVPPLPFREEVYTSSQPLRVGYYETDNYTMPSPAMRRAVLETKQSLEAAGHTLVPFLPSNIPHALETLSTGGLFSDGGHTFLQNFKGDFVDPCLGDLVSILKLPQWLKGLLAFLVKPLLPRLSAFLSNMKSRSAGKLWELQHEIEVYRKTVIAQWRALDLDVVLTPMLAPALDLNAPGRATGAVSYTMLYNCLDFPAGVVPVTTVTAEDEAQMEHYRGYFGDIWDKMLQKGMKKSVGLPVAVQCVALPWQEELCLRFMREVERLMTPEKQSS

FAAH [3] = molecular target: T2, FAAH; conditions: pre-incubated with FAAH at various time intervals, [S]final = 5 µM

| SMILES | pIC50 (human sEH) | activity blocked in the microsomes (FAAH [1]) [%] | pIC50 (FAAH [2]) | change of FAAH potency with pre-incubation time (in words) (FAAH [3]) |
| --- | --- | --- | --- | --- |
| O=C(Nc1cccnc1)N1CCC(Cc2cccc(Oc3ccc(C(F)(F)F)cn3)c2)CC1 [PF-3845, N-(pyridin-3-yl)-4-(3-((5-(trifluoromethyl)pyridin-2-yl)oxy)benzyl)piperidine-1-carboxamide] | < 5.00 | > 80 | 9.22 |  |
| NC(=O)c1cccc(-c2cccc(OC(=O)NC3CCCCC3)c2)c1 [URB597, 3'-carbamoyl-[1-1'-biphenyl]-3-yl cyclohexylcarbamate] |  |  |  | time dependent |
